pIC50: −log10 of the molar value.
Experiments:
Type in all cases: biochemical
recombinant human PAI-1 [1] = molecular target: T1, recombinant human PAI-1 (Homo sapiens, UniProt P05121); experiment: Test Example 2: human PAI-1 inhibitory activity (tPA fluorogenic substrate assay, pH7.4 HEPES buffer); settings: for pIC50: pH7.4 HEPES buffer, obtained from Table 5 results; for inhibition at 3 µM: pH 7.4, read-out: Inhibition Rate of Human PAI-1 Activity (%)
T1 construct: purchased Molecular Innovations, Inc
Method: (§1) Except using the pH7.4 HEPES buffer instead of pH7.5 Tris buffer, and the change of incubation time from 15 minutes to 10 minutes of the mixed solution added by two-chain tPA solution, tests were carried out similarly to the Test Example 1.
<Compotion of pH7.4 HEPES Buffer>
0.1% Polyethylene glycol 8,000 (Hampton Research Corporation)
2 mM Dimethyldecylphoshine oxide [Apo-10] (Fluka Corporation)

recombinant rat PAI-1 = molecular target: T2, recombinant rat PAI-1 (Rattus norvegicus, UniProt P20961); experiment: Test Example 3: rat PAI-1 inhibitory activity (tPA fluorogenic substrate assay, pH7.4 HEPES buffer); settings: for pIC50: pH7.4 HEPES buffer, obtained from Table 7 results; for inhibition at 10 µM / inhibition at 3 µM: pH 7.4, read-out: Inhibition Rate of Rat PAI-1 Activity (%)
T2 construct: purchased Molecular Innovations, Inc
T2 sequence (P20961 24-402): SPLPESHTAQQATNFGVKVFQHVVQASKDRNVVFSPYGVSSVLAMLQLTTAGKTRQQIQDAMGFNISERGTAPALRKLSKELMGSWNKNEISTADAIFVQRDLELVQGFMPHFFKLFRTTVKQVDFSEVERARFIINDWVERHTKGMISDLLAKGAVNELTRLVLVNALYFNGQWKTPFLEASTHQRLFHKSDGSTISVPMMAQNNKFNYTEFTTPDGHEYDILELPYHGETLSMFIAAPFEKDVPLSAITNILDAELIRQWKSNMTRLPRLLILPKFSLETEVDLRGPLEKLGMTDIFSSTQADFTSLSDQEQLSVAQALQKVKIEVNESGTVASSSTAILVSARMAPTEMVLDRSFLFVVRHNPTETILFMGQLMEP
Method: as §1

recombinant human PAI-1 [2] = molecular target: T1, recombinant human PAI-1; experiment: Test Example 4: human PAI-1 inhibitory activity (amount of PAI-1 bound to plate-coated tPA, ELISA); settings: PAI-1 50 ng/ml bound to coated tPA, read-out: Inhibition Rate of Human PAI-1 Activity (%); for inhibition at 0.1 µM: compound 0.1 μM; for inhibition at 0.3 µM: compound 0.3 μM
Method: 100 μl of tPA solution where one-chain recombinant tPA (hereinafter refereed to as tPA; American diagnostica, inc.) diluted with Buffer A to achieve a concentration of 10 μg/ml was added to each well of 96-well plate (Nunc Maxisorp), incubated for one night at […] to coated with tPA. Then, after suction of tPA solution from the 96-well plate, rinsed successively with Buffer A and Buffer B.
To Buffer B, solutions of the present application compound dissolved with DMSO (final DMSO concentration: 0.2%) and recombinant human PAI-1 (Molecular Innovations, Inc.) were added and blended so that the final concentrations would be 0.1 to 3.0 μM and 50 ng/ml respectively, and were incubated for 15 minutes on ice. These mixed solutions were added to rinsed 96-well plates at 100 μl/well, and incubated for 60 minutes at room temperature. To prepare calibration curve, PAI-1 solutions without the present application compound (solutions where the final concentrations being 100, 50, 25, 12.5, 6.25, 3.13, 1.56 ng/ml PAI-1) were added at 100 μl/well, and were incubated for 60 minutes at room temperature, as standard.
After incubation, the reaction mixture was suction removed, and rinsed each well with Wash Buffer. Next, anti-human PAI-1 monoclonal antibody (PROGEN Inc.) diluted with Buffer C to be 3.0 μg/ml was added to the 96-well plate at 100 μl/well, and incubated for 1 hour at room temperature. After rinsing each well with Wash Buffer, alkaline phosphatase-labeled goat anti-mouse IgG (H+L) (Jackson ImmunoResearch, Inc.) diluted with Buffer D to be 0.12 μg/ml was added at 100 μl/well, and incubated for 1 hour at room temperature. After rinsing each well with Wash Buffer, 1.0 mg/ml p-Nitrophenyl Phosphate (SIGMA) was added to the 96-well plate at 100 μl/well to start the reaction. After 30 to 60 minutes, 25 μl of 0.5 N NaOH was added to stop the reaction, and the absorbance was measured at 405 nm using a multiplate reader (GENios; TECAN G.M.B.H.).
Based on the calibration curve prepared from the standard wells, amounts of PAI-1 bound to tPA in the wells treated with the present application compound were calculated, and the PAI-1 inhibition rates by the present application compounds were obtained by the following equation. [PAI-1 Inhibition Rate (%)]=[1-(amount of PAI-1 bound to tPA on the well treated with the present application compound)/(amount of PAI-1 bound to tPA on the well treated with PAI-1 solution without present application compound (solution with the final concentration of 50 ng/ml PAI-1)]×100 <Composition of Buffer A> 0.1 M Tris-HCl-150 150 mM NaCl pH 7.7 <Composition of Buffer B> 50 mM sodium phosphate 0.1 M NaCl 1 mM EDTA pH 6.6 <Composition of Buffer C> 50 mM sodium phosphate 100 mM NaCl pH 7.4 <Composition of Buffer D> 0.01 M Tris-HCl 0.25 M NaCl pH 8.0 <Composition of Wash Buffer> 0.05% Tween 20 0.1% BSA in Buffer A <Composition of p-Nitrophenyl Phosphate Solution> 1 M Diethanolamine 0.5 mM MgCl2 p-Nitrophenyl phosphate pH 9.8

T1 sequence (P05121 24-402): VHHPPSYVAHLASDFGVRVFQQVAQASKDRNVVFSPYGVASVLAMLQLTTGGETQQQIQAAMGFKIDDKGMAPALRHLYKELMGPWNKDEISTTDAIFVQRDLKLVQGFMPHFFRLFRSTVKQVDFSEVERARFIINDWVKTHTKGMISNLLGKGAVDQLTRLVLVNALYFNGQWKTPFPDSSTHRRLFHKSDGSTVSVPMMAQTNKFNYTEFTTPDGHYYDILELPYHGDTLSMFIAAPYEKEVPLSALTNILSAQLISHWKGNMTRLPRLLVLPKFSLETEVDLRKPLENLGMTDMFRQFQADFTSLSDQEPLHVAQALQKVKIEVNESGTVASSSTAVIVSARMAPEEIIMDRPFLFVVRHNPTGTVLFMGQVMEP

Structure (SMILES)	pIC50 (recombinant human PAI-1 [1])	pIC50 (recombinant rat PAI-1)	inhibition at 10 µM (recombinant rat PAI-1) [%]	inhibition at 3 µM (recombinant human PAI-1 [1]) [%]	inhibition at 0.1 µM (recombinant human PAI-1 [2]) [%]	inhibition at 3 µM (recombinant rat PAI-1) [%]	inhibition at 0.3 µM (recombinant human PAI-1 [2]) [%]
CC(C)(C)c1ccc(CN(C(=O)C(=O)O)c2ccc(-c3ccc(OC(F)(F)F)cc3)cc2Cl)cc1 [compound 26, N-[4-(tert-butyl)benzyl]-N-[3-chloro-4′-(trifluoromethoxy)biphenyl-4-yl]oxamic Acid]	5.93	5.67					
CCCOc1ccc(-c2ccc(OC(F)(F)F)cc2)cc1N(Cc1ccc(C(C)(C)C)cc1)C(=O)C(=O)O [compound 68, N-[4-(tert-butyl)benzyl]-N-[4-propoxy-4′-(trifluoromethoxy)biphenyl-3-yl]oxamic Acid]	5.93	5.75	> 99				
CCC(CC)Oc1ccc(-c2ccc(OC(F)(F)F)cc2)cc1N(Cc1ccc(C(C)(C)C)cc1)C(=O)C(=O)O [compound 79, N-[4-(tert-butyl)benzyl]-N-[4-(1-ethylpropoxy)-4′-(trifluoromethoxy)biphenyl-3-yl]oxamic Acid]	6.13	5.93	> 99	> 99	8		
CCCOc1ccc(N(Cc2ccc(C(C)(C)C)cc2)C(=O)C(=O)O)cc1-c1ccc(OC(F)(F)F)cc1 [compound 65, N-[4-(tert-butyl)benzyl]-N-[2-propoxy-4′-(trifluoromethoxy)biphenyl-5-yl]oxamic Acid]	5.94	5.76		> 99	0		
CC(C)(C)c1ccc(CN(C(=O)C(=O)O)c2cc(-c3ccc(OC(F)(F)F)cc3)cc(C(F)(F)F)c2)cc1 [compound 18, N-[4-(tert-butyl)benzyl]-N-[4′-(trifluoromethoxy)-5-(trifluoromethyl)biphenyl-3-yl]oxamic Acid]	5.90	5.79			0		
CC(C)(C)c1ccc(COc2ccc(-c3ccc(OC(F)(F)F)cc3)cc2N(Cc2ccccc2)C(=O)C(=O)O)cc1 [compound 59, N-benzyl-N-{4-[4-(tert-butyl)benzyloxy]-4′-(trifluoromethoxy)biphenyl-3-yl}oxamic Acid]	6.18	5.95	> 99	> 99		> 99	
CC(C)(C)c1ccc(CN(C(=O)C(=O)O)c2cc(C(F)(F)F)ccc2-c2ccc(OC(F)(F)F)cc2)cc1 [compound 48, N-[4-(tert-butyl)benzyl]-N-[4′-(trifluoromethoxy)-4-(trifluoromethyl)biphenyl-2-yl]oxamic Acid]	5.94	5.61				61	
Cc1ccc(N(Cc2ccc(C(C)(C)C)cc2)C(=O)C(=O)O)cc1-c1ccc(OC(F)(F)F)cc1 [compound 56, N-[4-(tert-butyl)benzyl]-N-[2-methyl-4′-(trifluoromethoxy)biphenyl-5-yl]oxamic Acid]	5.85	5.73	> 99		4		
CC(C)(C)c1ccc(CN(C(=O)C(=O)O)c2cccc(Oc3ccc(OC(F)(F)F)cc3)c2)cc1 [compound 52, N-[4-(tert-butyl)benzyl]-N-{3-[4-(trifluoromethoxy)phenoxy]phenyl}oxamic Acid]	5.74	5.52					
CC(C)(C)c1ccc(CN(C(=O)C(=O)O)c2cccc(-c3ccc(OC(F)(F)F)cc3)c2)cc1 [compound 9, N-[4-(tert-butyl)benzyl]-N-[4′-(trifluoromethoxy)biphenyl-3-yl]oxamic Acid]	5.77	5.56	> 99		0		
CCCCCOc1ccc(-c2ccc(OC(F)(F)F)cc2)cc1N(Cc1ccc(C(C)(C)C)cc1)C(=O)C(=O)O [compound 74, N-[4-(tert-butyl)benzyl]-N-[4-pentyloxy-4′-(trifluoromethoxy)biphenyl-3-yl]oxamic acid]	6.09	5.94	> 99		0		
CCCCOc1ccc(N(Cc2ccc(C(C)(C)C)cc2)C(=O)C(=O)O)cc1-c1ccc(OC(F)(F)F)cc1 [compound 73, N-[4-(tert-butyl)benzyl]-N-[2-butoxy-4′-(trifluoromethoxy)biphenyl-5-yl]oxamic Acid]	5.95	5.74		> 99			
CCC(CC)Oc1ccc(N(Cc2ccc(C(C)(C)C)cc2)C(=O)C(=O)O)cc1-c1ccc(OC(F)(F)F)cc1 [compound 77, N-[4-(tert-butyl)benzyl]-N-[2-(1-ethylpropoxy)-4′-(trifluoromethoxy)biphenyl-5-yl]oxamic Acid]	5.98	5.85		> 99	12		
CCCCc1ccc(CN(C(=O)C(=O)O)c2ccc(-c3ccc(C(C)(C)C)cc3)cc2)cc1 [compound 86, N-(4-butylbenzyl)-N-[4′-(tert-butyl)biphenyl-4-yl]oxamic Acid]	6.14	5.86		> 99	0		0
CCN(CC)c1ccc(N(Cc2ccc(C(C)(C)C)cc2)C(=O)C(=O)O)c(-c2ccc(OC(F)(F)F)cc2)c1 [compound 88, N-[4-(tert-butyl)benzyl]-N-[5-diethylamino-4′-(trifluoromethoxy)biphenyl-2-yl]oxamic Acid]	5.95	5.72			0		0
CCCOc1ccc(N(Cc2ccc(C(C)(C)C)cc2)C(=O)C(=O)O)c(-c2ccc(OC(F)(F)F)cc2)c1 [compound 78, N-[4-(tert-butyl)benzyl]-N-[5-propoxy-4′-(trifluoromethoxy)biphenyl-2-yl]oxamic Acid]	5.97	5.74		> 99	0		
CCCCOc1ccc(-c2ccc(OC(F)(F)F)cc2)cc1N(Cc1ccc(C(C)(C)C)cc1)C(=O)C(=O)O [compound 69, N-[4-(tert-butyl)benzyl]-N-[4-butoxy-4′-(trifluoromethoxy)biphenyl-3-yl]oxamic Acid]	6.06	5.89	> 99		0		
CC(C)(C)c1ccc(CN(C(=O)C(=O)O)c2ccc(Oc3ccc(OC(F)(F)F)cc3)cc2C(F)(F)F)cc1 [compound 54, N-[4-(tert-butyl)benzyl]-N-{4-[4-(trifluoromethoxy)phenoxy]-2-(trifluoromethyl)phenyl}oxamic Acid]	5.88	5.69			0		0
CC(C)(C)c1ccc(CN(C(=O)C(=O)O)c2ccc(Cl)cc2-c2ccc(OC(F)(F)F)cc2)cc1 [compound 72, N-[4-(tert-butyl)benzyl]-N-[5-chloro-4′-(trifluoromethoxy)biphenyl-2-yl]oxamic Acid]	5.97	5.67		> 99			

Reference: US7884234B2, “N-phenyloxamide derivatives” (Institute of Medicinal Molecular Design, inc., priority 2006, dated 2011)
